The results in this text go back to ChEMBL document CHEMBL1201862, “PubChem BioAssay data set” (2004).

The structures appear in SMILES notation.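 A five-concentration, 48-hour dose response in 96-well plates underlies each endpoint, interpolated linearly between surrounding concentrations. GI50 = concentration required for 50% inhibition of growth.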 The source made the active and inactive calls. No stated cut-off is given here; in the data, active = GI50 up to about 1.1 µM and inactive = higher.

Test systems include 786-0; A498; ACHN; CAKI-1; CCRF-CEM; COLO 205; HOP-62; HT-29; IGROV-1; Malme-3M; NCI-H460; NCI-H522; OVCAR-5; SF-268; SF-295; SF-539; SK-MEL-2; SK-OV-3; TK-10; UO-31.
Common to all, as to experiment: inhibition of tumour cell growth, NCI panel, 48 h

For the compound `CC1=NN(C(=O)c2ccccc2O)C(=O)/C1=C/c1cccc(O)c1`, the GI50 in the assay on 786-0 was 0.826 µM (active); in the assay on A498 it was 0.0443 µM (active); with ACHN, 0.188 µM (active); with CAKI-1, > 100 µM (inactive); in the assay with CCRF-CEM, 2.88 µM (inactive); with COLO 205 it was 32.8 µM (inactive). In addition, the GI50 is 1.18 µM (inactive) in the assay on HOP-62; 39.2 µM (inactive) in the assay on HT-29; 0.198 µM (active) in the assay with IGROV-1; 1.94 µM (inactive) in the assay on Malme-3M; 0.774 µM (active) in the assay with NCI-H460; 1.22 µM (inactive) in the assay with NCI-H522. Moreover, the GI50 with OVCAR-5 is 5.56 µM (inactive); in the assay with SF-268 it was 0.637 µM (active); in the assay with SF-295, 0.671 µM (active); in the assay with SF-539, 0.171 µM (active); with SK-MEL-2, 0.968 µM (active); in the assay on SK-OV-3, 2.43 µM (inactive). The GI50 was 4.76 µM (inactive) in the assay on TK-10 and 0.178 µM (active) with UO-31.
For the compound `COc1cc2c(cc1OCc1ccccc1)CNCC2`, the GI50 in the assay on 786-0, in the assay with A498, in the assay on ACHN, with CAKI-1, with CCRF-CEM and in the assay with COLO 205 was > 100 µM (inactive) in each case. Besides, the GI50 in the assay on HOP-62, with HT-29, in the assay on IGROV-1, with Malme-3M, in the assay on NCI-H460 and in the assay on NCI-H522 was > 100 µM (inactive) each time. The GI50 in the assay on OVCAR-5, with SF-268, in the assay with SF-295, with SF-539, in the assay on SK-MEL-2 and with SK-OV-3 was > 100 µM (inactive) each time. In addition, the GI50 with TK-10 and in the assay on UO-31 was > 100 µM (inactive) in each case.
Turning to `CC(=O)NC1=C(N)C(=O)c2ccccc2C1=O`, the GI50 was 37.7 µM (inactive) with 786-0; > 100 µM (inactive) in the assay on A498; > 100 µM (inactive) in the assay with ACHN; > 100 µM (inactive) with CAKI-1; 47.1 µM (inactive) in the assay on CCRF-CEM; 30.5 µM (inactive) in the assay with COLO 205. The GI50 with HOP-62 is > 100 µM (inactive); in the assay with HT-29 it was 65.8 µM (inactive); in the assay on IGROV-1 it was > 100 µM (inactive); in the assay with Malme-3M, 21.3 µM (inactive); with NCI-H460 it was 20 µM (inactive); in the assay on NCI-H522 it was 79.4 µM (inactive). Also, the GI50 in the assay with OVCAR-5 is > 100 µM (inactive); in the assay with SF-268, 37.8 µM (inactive); in the assay on SF-295, > 100 µM (inactive); with SF-539, > 100 µM (inactive); with SK-MEL-2, 90.6 µM (inactive); in the assay with SK-OV-3, > 100 µM (inactive). Besides, the GI50 in the assay on TK-10 and in the assay with UO-31 was > 100 µM (inactive) in each case.
Consider `CCNC(=S)N/N=C(/C)c1cccc(/C(C)=N\NC(=S)NCC)n1`, for which the GI50 is 1.5 µM (inactive) with 786-0; 7.52 µM (inactive) in the assay with A498; 0.562 µM (active) in the assay with ACHN; 1.23 µM (inactive) in the assay on CAKI-1; 0.303 µM (active) with CCRF-CEM; 1.08 µM (active) in the assay on COLO 205. Also, the GI50 was 1.11 µM (active) in the assay with HOP-62; 0.315 µM (active) with HT-29; 1.24 µM (inactive) with IGROV-1; 2.44 µM (inactive) in the assay on Malme-3M; 0.31 µM (active) in the assay with NCI-H460; 1.15 µM (inactive) with NCI-H522. Further, the GI50 in the assay with OVCAR-5 is 0.873 µM (active); in the assay on SF-268, 0.59 µM (active); with SF-295, 0.488 µM (active); with SF-539, 1.27 µM (inactive); in the assay with SK-MEL-2, 3.9 µM (inactive); in the assay with SK-OV-3, 2.63 µM (inactive). Also, the GI50 is 0.771 µM (active) in the assay with TK-10 and 0.968 µM (active) in the assay on UO-31.
Regarding `Nc1cc(CO)cc(Nc2c3ccccc3nc3occc23)c1`, the GI50 in the assay on 786-0 was 29.9 µM (inactive); in the assay on A498, 51.4 µM (inactive); with ACHN, 29.8 µM (inactive); in the assay on CAKI-1, 28.6 µM (inactive); with CCRF-CEM, 48.1 µM (inactive); in the assay on COLO 205 it was 28.6 µM (inactive). In addition, the GI50 in the assay with HOP-62 is 37.2 µM (inactive); with HT-29, 6.76 µM (inactive); in the assay on IGROV-1, 24.5 µM (inactive); in the assay on Malme-3M it was 92 µM (inactive); with NCI-H460 it was 21.2 µM (inactive); in the assay on NCI-H522, 14.4 µM (inactive). Besides, the GI50 in the assay on OVCAR-5 is > 100 µM (inactive); in the assay on SF-268 it was 21.3 µM (inactive); in the assay with SF-295, 37.7 µM (inactive); in the assay with SF-539, 24.8 µM (inactive); with SK-MEL-2 it was 23.6 µM (inactive); in the assay on SK-OV-3 it was 36.5 µM (inactive). Besides, the GI50 with TK-10 is 52.6 µM (inactive); in the assay on UO-31, 32.2 µM (inactive).
Regarding `Cc1c2oc3c(C)cnc(C(=O)NC4C(=O)NC(C(C)C)C(=O)N5CCCC5C(=O)N(C)CC(=O)N(C)C(C(C)C)C(=O)OC4C)c3nc-2c(C(=O)NC2C(=O)NC(C(C)C)C(=O)N3CCCC3C(=O)N(C)CC(=O)N(C)C(C(C)C)C(=O)OC2C)c(N)c1=O` (stereo not given), the GI50 was 2.3 µM (inactive) in the assay on 786-0; 6.18 µM (inactive) with A498; 5.48 µM (inactive) in the assay with ACHN; 10.9 µM (inactive) with CAKI-1; 0.121 µM (active) in the assay on CCRF-CEM; 1.8 µM (inactive) with COLO 205. The GI50 in the assay with HOP-62 was 3.05 µM (inactive); in the assay with HT-29, 1.29 µM (inactive); in the assay with IGROV-1, 0.687 µM (active); in the assay on Malme-3M it was 1.28 µM (inactive); with NCI-H460, 1.03 µM (active); in the assay on NCI-H522, 0.673 µM (active). In addition, the GI50 was 13.2 µM (inactive) in the assay with OVCAR-5; 0.789 µM (active) in the assay with SF-268; 5.45 µM (inactive) in the assay with SF-295; 1.42 µM (inactive) in the assay on SF-539; 0.431 µM (active) in the assay with SK-MEL-2; 5.6 µM (inactive) in the assay with SK-OV-3. The GI50 was 22.9 µM (inactive) in the assay on TK-10 and 14.2 µM (inactive) in the assay with UO-31.
Turning to `CC1C(c2ccccc2)N(C)C(c2ccccc2)C(C)C1(O)c1ccccc1` (stereo not given), the GI50 is > 100 µM (inactive) in the assay on 786-0; 42.3 µM (inactive) with A498; > 100 µM (inactive) with ACHN; > 100 µM (inactive) with CAKI-1; > 100 µM (inactive) in the assay with CCRF-CEM; 20 µM (inactive) in the assay with COLO 205. The GI50 is > 100 µM (inactive) in the assay with HOP-62; 55.8 µM (inactive) in the assay with HT-29; > 100 µM (inactive) in the assay on IGROV-1; > 100 µM (inactive) with Malme-3M; 34.4 µM (inactive) in the assay with NCI-H460; > 100 µM (inactive) with NCI-H522. Besides, the GI50 is > 100 µM (inactive) in the assay on OVCAR-5; > 100 µM (inactive) in the assay with SF-268; 46.7 µM (inactive) in the assay on SF-295; > 100 µM (inactive) in the assay with SF-539; 79.6 µM (inactive) with SK-MEL-2; > 100 µM (inactive) in the assay with SK-OV-3. The GI50 in the assay on TK-10 and with UO-31 was > 100 µM (inactive) in each case.
Take `CCCC#CCOC(=O)c1cc([N+](=O)[O-])cc([N+](=O)[O-])c1`: the GI50 in the assay with 786-0, with A498, in the assay with ACHN, in the assay with CAKI-1, with CCRF-CEM and in the assay with COLO 205 was > 100 µM (inactive) each time. The GI50 in the assay with HOP-62 was > 100 µM (inactive); in the assay on HT-29, > 100 µM (inactive); in the assay with IGROV-1 it was > 100 µM (inactive); with Malme-3M it was 19.9 µM (inactive); with NCI-H460, > 100 µM (inactive); with NCI-H522, 43.4 µM (inactive). Further, the GI50 in the assay with OVCAR-5, in the assay with SF-268, in the assay on SF-295, in the assay with SF-539, in the assay on SK-MEL-2 and in the assay with SK-OV-3 was > 100 µM (inactive) throughout. Further, the GI50 in the assay with TK-10 and with UO-31 was > 100 µM (inactive) in each case.
For `C[C@H](CCC(=O)O)[C@H]1CC[C@H]2[C@@H]3[C@@H](O)C[C@@H]4C[C@H](O)CC[C@]4(C)[C@H]3CC[C@]12C`, the GI50 in the assay with 786-0 was > 100 µM (inactive); in the assay with A498, > 100 µM (inactive); with ACHN, > 100 µM (inactive); in the assay on CAKI-1, > 100 µM (inactive); in the assay on CCRF-CEM, 60.8 µM (inactive); with COLO 205, > 100 µM (inactive). Also, the GI50 in the assay with HOP-62 is > 100 µM (inactive); in the assay on HT-29, > 100 µM (inactive); in the assay on IGROV-1, > 100 µM (inactive); with Malme-3M, > 100 µM (inactive); in the assay on NCI-H460 it was 58.2 µM (inactive); in the assay on NCI-H522, > 100 µM (inactive). Also, the GI50 in the assay on OVCAR-5 was > 100 µM (inactive); in the assay with SF-268, > 100 µM (inactive); in the assay on SF-295, 53.6 µM (inactive); with SF-539 it was > 100 µM (inactive); in the assay with SK-MEL-2, > 100 µM (inactive); with SK-OV-3 it was > 100 µM (inactive). For the same compound, the GI50 in the assay with TK-10 is 99.3 µM (inactive); with UO-31, 57.5 µM (inactive).
As to `COC(=O)C(Cl)=C1CC1`, the GI50 was 26.1 µM (inactive) in the assay with 786-0; > 100 µM (inactive) in the assay with A498; 21.5 µM (inactive) in the assay with ACHN; 17.9 µM (inactive) in the assay on CAKI-1; 14.3 µM (inactive) with CCRF-CEM; 19.9 µM (inactive) in the assay on COLO 205. Further, the GI50 is > 100 µM (inactive) in the assay on HOP-62; 34.2 µM (inactive) with HT-29; > 100 µM (inactive) with IGROV-1; 21.1 µM (inactive) in the assay with Malme-3M; > 100 µM (inactive) in the assay on NCI-H460; 17.6 µM (inactive) with NCI-H522. Besides, the GI50 with OVCAR-5 is > 100 µM (inactive); with SF-268 it was 92.5 µM (inactive); in the assay with SF-295 it was > 100 µM (inactive); in the assay with SF-539, 27.2 µM (inactive); with SK-MEL-2, 32.1 µM (inactive); in the assay on SK-OV-3 it was > 100 µM (inactive). Moreover, the figures for the GI50 in the assay with TK-10 and with UO-31 were 36.7 µM (inactive) and 31.4 µM (inactive), respectively.
